Results published in patent US11045435B2, “Methods for treating ocular diseases” (NATUREWISE BIOTECH & MEDICALS CORPORATION, priority 2016, dated 2021).

Key:
ARPE-19 cells [1] = assay: H2O2-induced injury in ARPE-19 cells (MTT); assay type: cell-based, human; settings: 3 μg/ml and 10 μg/ml; 400, M and 600 μM H2O2; 24 h
Protocol: (§1) MTT assay was used to measure the viability of ARPE-19 cells and HUVECs. 2×10^5 ARPE-19 cells or 5×10^4 HUVECs were seeded in 96-well plates ([…]) and allowed to grow overnight. Negative control was prepared by adding 100 μl medium without cells. The cells were then treated with fresh medium with COMPOUND I (0.03, 0.1, 0.3, 1, 3 and 10 μg/ml) and/or oxidants (NaIO3, H2O2, t-BHP and NaN3) for 12, 24, or 72 hours (200 μl/well). The vehicle control group was treated with vehicle. 20 μl MTT (5 mg/ml) was added to wells, and incubated for another 4 h. After incubation, the medium was discarded and 100 μl DMSO was added to solubilize formazan produced from MTT by the viable cells. Absorbance was measured at 570 nm using a microplate reader (Bio-Rad Laboratories, Inc., CA). Cells viability was calculated according to the following formula: Viability of cells (%)=(absorbance in tested sample−absorbance in negative control)/(absorbance in vehicle control−absorbance in negative control)×100%.

[2] = Hypoxia-induced injury in HUVECs (MTT); assay type: cell-based; settings: human, 1% O2, read-out: decrease of viability in hypoxic condition
Protocol: as §1
Cells were allowed to attach overnight, and then exposed to COMPOUND I or vehicle under hypoxic condition for 72 h. Hypoxic conditions (1% O2, 5% CO2 and 94% N2) were maintained by using a temperature and humidity controlled environmental C-chamber by O2 and CO2 controllers (Proox Model 110 and Pro CO2 model 120, Biospherix Ltd., Redfield, N.Y., USA) with N2 and CO2 gas sources.

GFAP mRNA = assay: Gene expression of GFAP in retina, quantitative real-time PCR, streptozotocin-induced diabetic retinopathy; assay type: in vivo, Sprague-Dawley female rats
Protocol: (§2) After a 16-hour fasting, Sprague-Dawley female rats weighing 200-220 g received a single 60 mg/kg intraperitoneal injection of Streptozotocin (STZ; Sigma-Aldrich, St. Louis, Md.) in 10 mM sodium citrate buffer (pH 4.5; Sigma-Aldrich, St. Louis, Md.). Control rats were fasted and received the buffer solution alone. Rats with blood glucose levels higher than 375 mg/dL 7 days after receiving STZ were considered to be diabetic. Diabetic rats were treated with 1% COMPOUND I, 0.5% COMPOUND I or vehicle eye drops 3 time a day for 6 weeks.
After rat were sacrificed as described previously, the eyes were enucleated and bisected, and the retinas were peeled from the eyecups and immediately homogenized in RNA isolation agent (RNeasy®Plus Mini Kit, Qiagen, Valencia, Calif.). The first-strand cDNA was prepared from the mRNA by using the commercial kit in accordance with the manufacturer's protocol (High-capacity reverse transcription kits, AB life technologies, Austin, Tex.). Real-time PCR was performed in 96-well plates using standard protocols with a fluorescent detection dye (SYBRR Green PCR Master Mix, AB life technologies, Austin, Tex.) in a real-time detection system (iCycler. Bio-Rad). All PCR reactions were a final volume of 20 μl comprised of fluorescent dye/PCR mix, final concentration 0.2 μM forward and reverse primers, and 1 ng of cDNA. The PCR cycle parameters were as follows: polymerase activation for 15 minutes at 90° C., 40 cycles of 95° C. for 15 seconds, 60° C. for 30 seconds and 72° C. for 1 minute. The quantity of mRNA was calculated by normalizing the CT of the β-actin housekeeping gene in the same sample, according to the following formula: The average β-actin CT (each multiplex PCR was performed in triplicate) was subtracted from the average target gene CT; the results represented the ΔCT. This ΔCT is specific and can be compared with the ΔCT of a calibration sample. The subtraction of control ΔCT from the ΔCT of the target gene is referred ΔΔCT. The relative quantification of expression of a target gene (in comparison with control) was determined by using 2^−ΔΔCT.

ARPE-19 cells [3] = assay: NaIO3-induced injury in ARPE-19 cells (MTT); assay type: cell-based, human; settings: 10 μg/ml; 72 h
Protocol: as §1

VEGF = VEGF levels in retina, Western Blot, streptozotocin-induced diabetic retinopathy; assay type: in vivo, Sprague-Dawley female rats
HUVECs [4] = assay: NaN3-induced injury in HUVECs (MTT); assay type: cell-based, human; settings: 72 h
Protocol: as §1

HUVECs [5] = assay: MTT viability / proliferation of HUVECs; assay type: cell-based, human; settings: 72 h
Protocol: (§3) ARPE-19 cells were grown in DMEM/F12 medium supplemented with 10% FBS, 100 units/ml penicillin G, and 100 μg/ml streptomycin sulfate. HUVECs were grown in vascular cell basal medium supplemented with endothelial cell growth kit. Cells were incubated in a humidified incubator at 37° C. under 5% CO2 and 95% air.
as §1

ARPE-19 cells [6] = assay: MTT viability / proliferation of ARPE-19 cells; assay type: cell-based, human; settings: 72 h
Protocol: as §3, §1

GFAP = GFAP levels in retina, Western Blot, streptozotocin-induced diabetic retinopathy; assay type: in vivo, Sprague-Dawley female rats
Protocol: as §2
After rats were sacrificed as described in last section, eyes were enucleated and bisected. Retinas were peeled from eyecups and immediately homogenized with 0.3 ml ice-cold lysis buffer ([…]; Sigma-Aldrich, St. Louis, Mo.), including 1 μl proteinase inhibitor cocktail ([…]; Sigma-Aldrich, St. Louis, Mo.). The insoluble material was removed by centrifugation at 12,000 g for 20 minutes. Final protein concentrations were determined using a protein assay kit (BCA, Santa Cruz Biotechnology, Santa Cruz, Calif.) according to manufacturer's specifications. The homogenate (80 μg) were separated by NuPAGE Bis-Tris Mini Gels (Invitrogen Life Technologies, Grand Island, N.Y.) and transferred to nitrocellulose membranes by iBlot Gel transfer Device (Invitrogen Life Technologies, Grand Island, N.Y.). The nitrocellulose membranes were treated by BenchPro 4100 Card Processing Station (Invitrogen Life Technologies, Grand Island, N.Y.) according to the instruction of WesternBreeze® Chromogenic Kit-Anti-Rabbit (Invitrogen Life Technologies, Grand Island, N.Y.). The primary antibodies used were anti-GFAP (1:200, Santa Cruz Biotechnology, Santa Cruz, Calif.) and glycealdehyde-3-phosphate dehydrogenase (GAPDH) (1:100), respectively. The Anti-rabbit IgG, AP-linked antibody was used as a second antibody. For quantitative evaluation of the western blot studies, the nitrocellulose membranes were scanned and the optical densities were quantified with analysis software (Pro-gel Analyzer software, Media Cybernetics, Rockville, Md.).

Structure (SMILES): COc1ccc(COc2c(/C=C/C(=O)NO)ccc(OC)c2CC=C(C)C)cc1 [COMPOUND I]
- effect on H2O2-induced injuries (ARPE-19 cells [1]): reversed
- cytotoxicity at 72 h, 10 μg/ml [2]: 98%
- GFAP gene expression vs diabetic control group, in words (GFAP mRNA; 0.5% and 1%): significantly down-regulated
- mRNA expression of GFAP, DR animals as 100% (GFAP mRNA; 0.5% eye drops tid 6 weeks): 60%
- mRNA expression of GFAP, DR animals as 100% (GFAP mRNA; 1% eye drops tid 6 weeks): 51%
- effect on viability in NaIO3-induced injury (ARPE-19 cells [3]): significantly enhanced the viability
- VEGF level in diabetic eyes, in words (VEGF; 0.5% and 1%): markedly suppressed
- VEGF level (Western Blot), DR animals as 100% (VEGF; 0.5% eye drops tid 6 weeks): 77%
- VEGF level (Western Blot), DR rats as 100% (VEGF; 1.0% eye drops tid 6 weeks): 50%
- enhancement of NaN3-induced injury (HUVECs [4]; 10 µg/ml, 3 mM NaN3): 72%
- effect on NaN3-induced injury (HUVECs [4]; From 0.03 μg/ml): didn't affect
- enhancement of NaN3-induced injury (HUVECs [4]; […], 0.3 mM NaN3): 65%
- enhancement of NaN3-induced injury (HUVECs [4]; […], 1 mM NaN3): 52%
- effect on cell growth (HUVECs [5]; 0.03 μg/ml to 1 μg/ml): did not affect cell growth
- inhibition at 10 µg/mL (HUVECs [5]; Homo sapiens, HUVEC, 10 μg/ml): 47%
- effect on cell growth (ARPE-19 cells [6]; 0.03 μg/ml to 1 μg/ml): did not affect cell growth
- inhibition at 10 µg/mL (ARPE-19 cells [6]; Homo sapiens, ARPE-19, 10 μg/ml): 36%
- GFAP level (Western Blot), DR animals as 100% (GFAP; 0.5% eye drops tid 6 weeks): 70%
- expression of GFAP proteins in retina vs diabetic control, in words (GFAP; 1% and 0.5% tid. for 6 weeks): significantly suppressed
- GFAP level (Western Blot), DR rats as 100% (GFAP; 1.0% eye drops tid 6 weeks): 46%
